Experimental data: patent US10131652B2, “Pyrimidinyloxy benzene derivatives as herbicides” (E. I. DU PONT DE NEMOURS AND COMPANY, priority 2014, dated 2018)

How the values were obtained:
Assay in all cases: Test F pre-/postemergence plant response
Format in all cases: in vivo
Conditions in all cases: scale 0 to 100
[1] = test system: waterhemp (common waterhemp, Amaranthus rudis)
Outline: (§1)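 Seeds were sown in silt loam and sprayed preemergence; in parallel, plants at 2–18 cm (1- to 4-leaf) received postemergence sprays. Test chemicals were in a non-phytotoxic solvent with surfactant. After 14–21 days in the greenhouse, injury was rated visually against controls on a 0–100 scale (100 = complete control).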

[2] = test system: barnyardgrass (Echinochloa crus-galli)
Outline: as §1

corn (Zea mays) = test system: corn (Zea mays)
Outline: as §1

[3] = test system: green foxtail (Setaria viridis)
Outline: as §1

[4] = test system: surinam grass (Brachiaria decumbens)
Outline: as §1

[5] = test system: large (Lg) crabgrass (Digitaria sanguinalis)
Outline: as §1

[6] = test system: ragweed (common ragweed, Ambrosia elatior)
Outline: as §1

[7] = test system: palmer pigweed (Amaranthus palmeri)
Outline: as §1

[8] = test system: arrowleaf sida (Sida rhombifolia)
Outline: as §1

soybean (Glycine max) = test system: soybean (Glycine max)
Outline: as §1

[9] = test system: morningglory (Ipomoea coccinea)
Outline: as §1

[10] = test system: dayflower (Virginia (VA) dayflower, Commelina virginica)
Outline: as §1

[11] = test system: johnsongrass (Sorghum halepense)
Outline: as §1

[12] = test system: sandbur (southern sandbur, Cenchrus echinatus)
Outline: as §1

[13] = test system: giant foxtail (Setaria faberii)
Outline: as §1

[14] = test system: fall panicum (Panicum dichotomiflorum)
Outline: as §1

CC(F)(F)c1cc(-c2ccccc2Oc2ncc(Br)cn2)no1 [Compound 149]
Plant response rating, Waterhemp ([1]; 16 g ai/ha Postemergence): 85 | Plant response rating, Waterhemp ([1]; 16 g ai/ha Preemergence): 35 | Plant response rating, Waterhemp ([1]; 31 g ai/ha Postemergence): 95 | Plant response rating, Waterhemp ([1]; 31 g ai/ha Preemergence): 100 | Plant response rating, Waterhemp ([1]; 62 g ai/ha Postemergence): 95 | Plant response rating, Waterhemp ([1]; 125 g ai/ha Postemergence): 98 | Plant response rating, Waterhemp ([1]; 125 g ai/ha Preemergence): 100 | Plant response rating, Waterhemp ([1]; Preemergence): 100 | Plant response rating, Barnyardgrass ([2]; 16 g ai/ha Postemergence): 0 | Plant response rating, Barnyardgrass ([2]; 16 g ai/ha Preemergence): 0 | Plant response rating, Barnyardgrass ([2]; 31 g ai/ha Postemergence): 5 | Plant response rating, Barnyardgrass ([2]; 31 g ai/ha Preemergence): 0 | Plant response rating, Barnyardgrass ([2]; 62 g ai/ha Postemergence): 10 | Plant response rating, Barnyardgrass ([2]; 62 g ai/ha Preemergence): 15 | Plant response rating, Barnyardgrass ([2]; 125 g ai/ha Postemergence): 10 | Plant response rating, Barnyardgrass ([2]; 125 g ai/ha Preemergence): 35 | Plant response rating, Corn (corn (Zea mays); 16 g ai/ha Postemergence): 0 | Plant response rating, Corn (corn (Zea mays); 16 g ai/ha Preemergence): 0 | Plant response rating, Corn (corn (Zea mays); 31 g ai/ha Postemergence): 10 | Plant response rating, Corn (corn (Zea mays); 31 g ai/ha Preemergence): 0 | Plant response rating, Corn (corn (Zea mays); 62 g ai/ha Postemergence): 10 | Plant response rating, Corn (corn (Zea mays); 62 g ai/ha Preemergence): 0 | Plant response rating, Corn (corn (Zea mays); 125 g ai/ha Postemergence): 15 | Plant response rating, Corn (corn (Zea mays); 125 g ai/ha Preemergence): 0 | Plant response rating, Foxtail, Green ([3]; 16 g ai/ha Preemergence): 0 | Plant response rating, Foxtail, Green ([3]; 31 g ai/ha Preemergence): 0 | Plant response rating, Foxtail, Green ([3]; 125 g ai/ha Preemergence): 50 | Plant response rating, Foxtail, Green ([3]; Preemergence): 50 | Plant response rating, Surinam Grass ([4]; 16 g ai/ha Preemergence): 0 | Plant response rating, Surinam Grass ([4]; 31 g ai/ha Preemergence): 0 | Plant response rating, Surinam Grass ([4]; 125 g ai/ha Preemergence): 15 | Plant response rating, Surinam Grass ([4]; Preemergence): 15 | Plant response rating, Crabgrass, Large ([5]; 16 g ai/ha Preemergence): 0 | Plant response rating, Crabgrass, Large ([5]; 31 g ai/ha Preemergence): 0 | Plant response rating, Crabgrass, Large ([5]; 62 g ai/ha Preemergence): 70 | Plant response rating, Crabgrass, Large ([5]; 125 g ai/ha Preemergence): 85 | Plant response rating, Ragweed ([6]; 16 g ai/ha Postemergence): 10 | Plant response rating, Ragweed ([6]; 16 g ai/ha Preemergence): 20 | Plant response rating, Ragweed ([6]; 31 g ai/ha Postemergence): 40 | Plant response rating, Ragweed ([6]; 31 g ai/ha Preemergence): 25 | Plant response rating, Ragweed ([6]; 62 g ai/ha Postemergence): 30 | Plant response rating, Ragweed ([6]; 125 g ai/ha Postemergence): 35 | Plant response rating, Ragweed ([6]; 125 g ai/ha Preemergence): 20 | Plant response rating, Ragweed ([6]; Preemergence): 35 | Plant response rating, Pigweed, Palmer ([7]; 16 g ai/ha Postemergence): 65 | Plant response rating, Pigweed, Palmer ([7]; 16 g ai/ha Preemergence): 25 | Plant response rating, Pigweed, Palmer ([7]; 31 g ai/ha Postemergence): 95 | Plant response rating, Pigweed, Palmer ([7]; 31 g ai/ha Preemergence): 90 | Plant response rating, Pigweed, Palmer ([7]; 62 g ai/ha Postemergence): 98 | Plant response rating, Pigweed, Palmer ([7]; 125 g ai/ha Postemergence): 100 | Plant response rating, Pigweed, Palmer ([7]; 125 g ai/ha Preemergence): 100 | Plant response rating, Pigweed, Palmer ([7]; Preemergence): 100 | Plant response rating, Arrowleaf Sida ([8]; 16 g ai/ha Postemergence): 75 | Plant response rating, Arrowleaf Sida ([8]; 16 g ai/ha Preemergence): 0 | Plant response rating, Arrowleaf Sida ([8]; 31 g ai/ha Postemergence): 85 | Plant response rating, Arrowleaf Sida ([8]; 31 g ai/ha Preemergence): 35 | Plant response rating, Arrowleaf Sida ([8]; 62 g ai/ha Postemergence): 95 | Plant response rating, Arrowleaf Sida ([8]; 62 g ai/ha Preemergence): 65 | Plant response rating, Arrowleaf Sida ([8]; 125 g ai/ha Postemergence): 98 | Plant response rating, Arrowleaf Sida ([8]; 125 g ai/ha Preemergence): 100 | Plant response rating, Soybean (soybean (Glycine max); 16 g ai/ha Postemergence): 50 | Plant response rating, Soybean (soybean (Glycine max); 16 g ai/ha Preemergence): 0 | Plant response rating, Soybean (soybean (Glycine max); 31 g ai/ha Postemergence): 85 | Plant response rating, Soybean (soybean (Glycine max); 31 g ai/ha Preemergence): 0 | Plant response rating, Soybean (soybean (Glycine max); 62 g ai/ha Postemergence): 90 | Plant response rating, Soybean (soybean (Glycine max); 125 g ai/ha Postemergence): 90 | Plant response rating, Soybean (soybean (Glycine max); 125 g ai/ha Preemergence): 30 | Plant response rating, Soybean (soybean (Glycine max); Preemergence): 0 | Plant response rating, Morningglory ([9]; 16 g ai/ha Preemergence): 0 | Plant response rating, Morningglory ([9]; 31 g ai/ha Preemergence): 0 | Plant response rating, Morningglory ([9]; 125 g ai/ha Preemergence): 10 | Plant response rating, Morningglory ([9]; Preemergence): 0 | Plant response rating, Dayflower, VA ([10]; 16 g ai/ha Postemergence): 10 | Plant response rating, Dayflower, VA ([10]; 16 g ai/ha Preemergence): 0 | Plant response rating, Dayflower, VA ([10]; 31 g ai/ha Postemergence): 20 | Plant response rating, Dayflower, VA ([10]; 31 g ai/ha Preemergence): 0 | Plant response rating, Dayflower, VA ([10]; 62 g ai/ha Postemergence): 40 | Plant response rating, Dayflower, VA ([10]; 62 g ai/ha Preemergence): 5 | Plant response rating, Dayflower, VA ([10]; 125 g ai/ha Postemergence): 50 | Plant response rating, Dayflower, VA ([10]; 125 g ai/ha Preemergence): 40 | Plant response rating, Johnsongrass ([11]; 16 g ai/ha Preemergence): 0 | Plant response rating, Johnsongrass ([11]; 31 g ai/ha Preemergence): 0 | Plant response rating, Johnsongrass ([11]; 125 g ai/ha Preemergence): 15 | Plant response rating, Johnsongrass ([11]; Preemergence): 0 | Plant response rating, Sandbur ([12]; 16 g ai/ha Postemergence): 0 | Plant response rating, Sandbur ([12]; 16 g ai/ha Preemergence): 0 | Plant response rating, Sandbur ([12]; 31 g ai/ha Postemergence): 5 | Plant response rating, Sandbur ([12]; 31 g ai/ha Preemergence): 0 | Plant response rating, Sandbur ([12]; 62 g ai/ha Postemergence): 15 | Plant response rating, Sandbur ([12]; 125 g ai/ha Postemergence): 10 | Plant response rating, Sandbur ([12]; 125 g ai/ha Preemergence): 10 | Plant response rating, Sandbur ([12]; Preemergence): 0 | Plant response rating, Foxtail, Giant ([13]; 16 g ai/ha Preemergence): 0 | Plant response rating, Foxtail, Giant ([13]; 31 g ai/ha Preemergence): 20 | Plant response rating, Foxtail, Giant ([13]; 62 g ai/ha Preemergence): 40 | Plant response rating, Foxtail, Giant ([13]; 125 g ai/ha Preemergence): 85 | Plant response rating, Panicum, Fall ([14]; 16 g ai/ha Postemergence): 10 | Plant response rating, Panicum, Fall ([14]; 16 g ai/ha Preemergence): 0 | Plant response rating, Panicum, Fall ([14]; 31 g ai/ha Postemergence): 20 | Plant response rating, Panicum, Fall ([14]; 31 g ai/ha Preemergence): 80 | Plant response rating, Panicum, Fall ([14]; 62 g ai/ha Postemergence): 20 | Plant response rating, Panicum, Fall ([14]; 125 g ai/ha Postemergence): 40 | Plant response rating, Panicum, Fall ([14]; 125 g ai/ha Preemergence): 100 | Plant response rating, Panicum, Fall ([14]; Preemergence): 98
